Assay: Weight of the mice
Type: in vivo
Parameters: Mean Diff. of weight, vehicle vs. NU-9: unit not given here
Settings: for Mean weight (Mean 2): WT-UeGFP mice, in g (unit assumed); for Weight, Average: WT-UeGFP
Experimental: hSOD1^G93A‐UeGFP, prpTDP‐43^A315T‐UeGFP and WT‐UeGFP mice were weighed and the required NU‐9 dose per weight was calculated (20 or 100 mg/kg), which was administered once daily by oral gavage, starting at postnatal day (P)60 and continuing until P120. Animals from the untreated group received the vehicle (NMP and olive oil) only. For oral administration purposes, 20 ga × 38 mm plastic feeding tubes were used (Instech Laboratories, Inc). The gavage tip was inserted into the mouth directly over the tongue and into the pharynx. While observing the swallowing reflex, the tip was safely and smoothly slid into the esophagus. Once the administration was completed, the gavage tip was pulled straight out.
Behavior data were collected from hSOD1^G93A‐UeGFP and WT‐UeGFP mice (starting at P60 and every 7 days until P116) and from prpTDP‐43^A315T‐UeGFP mice (at P60, P90, and P120) with the following number of mice for each group: WT‐UeGFP vehicle (n = 10), hSOD1^G93A‐UeGFP vehicle (n = 6), WT‐UeGFP 20 mg/kg/day NU‐9 (n = 5), hSOD1^G93A‐UeGFP 20 mg/kg/day NU‐9 (n = 7), WT‐UeGFP 100 mg/kg/day NU‐9 (n = 11), hSOD1^G93A‐UeGFP 100 mg/kg/day NU‐9 (n = 9), prpTDP‐43^A315T‐UeGFP untreated (n ≥ 3), and prpTDP‐43^A315T‐UeGFP 100 mg/kg/day NU‐9 (n = 4) (Table S3).

With `C[C@H](Oc1cc(C(F)(F)F)cc(C(F)(F)F)c1)C1CC(=O)CC(=O)C1` [NU‐9] the “Mean Diff. of weight, vehicle vs. NU-9” value (WT-UeGFP (vehicle) vs. WT-UeGFP (NU-9 20 mg/kg/day), P60, Tukey's multiple comparisons test) was -0.6, the “Mean Diff. of weight, vehicle vs. NU-9” value (WT-UeGFP (vehicle) vs. WT-UeGFP (NU-9 20 mg/kg/day), P67, Tukey's multiple comparisons test) was -1.3 and the “Mean Diff. of weight, vehicle vs. NU-9” value (WT-UeGFP (vehicle) vs. WT-UeGFP (NU-9 20 mg/kg/day), P74, Tukey's multiple comparisons test) was -0.9. The “Mean Diff. of weight, vehicle vs. NU-9” value (WT-UeGFP (vehicle) vs. WT-UeGFP (NU-9 20 mg/kg/day), P81, Tukey's multiple comparisons test) was -0.5, the “Mean Diff. of weight, vehicle vs. NU-9” value (WT-UeGFP (vehicle) vs. WT-UeGFP (NU-9 20 mg/kg/day), P88, Tukey's multiple comparisons test) was -0.1 and the “Mean Diff. of weight, vehicle vs. NU-9” value (WT-UeGFP (vehicle) vs. WT-UeGFP (NU-9 20 mg/kg/day), P95, Tukey's multiple comparisons test) was 0. The “Mean Diff. of weight, vehicle vs. NU-9” value (WT-UeGFP (vehicle) vs. WT-UeGFP (NU-9 20 mg/kg/day), P102, Tukey's multiple comparisons test) was -0.2, the “Mean Diff. of weight, vehicle vs. NU-9” value (WT-UeGFP (vehicle) vs. WT-UeGFP (NU-9 20 mg/kg/day), P109, Tukey's multiple comparisons test) was -1 and the “Mean Diff. of weight, vehicle vs. NU-9” value (WT-UeGFP (vehicle) vs. WT-UeGFP (NU-9 20 mg/kg/day), P116, Tukey's multiple comparisons test) was -1.267. For the same compound, the “Mean Diff. of weight, vehicle vs. NU-9” value (WT-UeGFP (vehicle) vs. WT-UeGFP (NU-9 100 mg/kg/day), P60, Tukey's multiple comparisons test) was -0.01818, the “Mean Diff. of weight, vehicle vs. NU-9” value (WT-UeGFP (vehicle) vs. WT-UeGFP (NU-9 100 mg/kg/day), P67, Tukey's multiple comparisons test) was -0.7545 and the “Mean Diff. of weight, vehicle vs. NU-9” value (WT-UeGFP (vehicle) vs. WT-UeGFP (NU-9 100 mg/kg/day), P74, Tukey's multiple comparisons test) was -0.2818. The “Mean Diff. of weight, vehicle vs. NU-9” value (WT-UeGFP (vehicle) vs. WT-UeGFP (NU-9 100 mg/kg/day), P81, Tukey's multiple comparisons test) was -0.9364, the “Mean Diff. of weight, vehicle vs. NU-9” value (WT-UeGFP (vehicle) vs. WT-UeGFP (NU-9 100 mg/kg/day), P88, Tukey's multiple comparisons test) was -0.2091 and the “Mean Diff. of weight, vehicle vs. NU-9” value (WT-UeGFP (vehicle) vs. WT-UeGFP (NU-9 100 mg/kg/day), P95, Tukey's multiple comparisons test) was -0.2. The “Mean Diff. of weight, vehicle vs. NU-9” value (WT-UeGFP (vehicle) vs. WT-UeGFP (NU-9 100 mg/kg/day), P102, Tukey's multiple comparisons test) was -0.5636, the “Mean Diff. of weight, vehicle vs. NU-9” value (WT-UeGFP (vehicle) vs. WT-UeGFP (NU-9 100 mg/kg/day), P109, Tukey's multiple comparisons test) was -0.2545 and the “Mean Diff. of weight, vehicle vs. NU-9” value (WT-UeGFP (vehicle) vs. WT-UeGFP (NU-9 100 mg/kg/day), P116, Tukey's multiple comparisons test) was -0.7576. The “Mean weight (Mean 2)” value (NU-9 20 mg/kg/day, P60) was 18.4, the “Mean weight (Mean 2)” value (NU-9 20 mg/kg/day, P67) was 19 and the “Mean weight (Mean 2)” value (NU-9 20 mg/kg/day, P74) was 18.8. The “Mean weight (Mean 2)” value (NU-9 20 mg/kg/day, P81) was 18.2, the “Mean weight (Mean 2)” value (NU-9 20 mg/kg/day, P88) was 18.8 and the “Mean weight (Mean 2)” value (NU-9 20 mg/kg/day, P95) was 18.8. For the same compound, the “Mean weight (Mean 2)” value (NU-9 100 mg/kg/day, P60) was 17.82, the “Mean weight (Mean 2)” value (NU-9 100 mg/kg/day, P67) was 18.45 and the “Mean weight (Mean 2)” value (NU-9 100 mg/kg/day, P74) was 18.18. The “Mean weight (Mean 2)” value (NU-9 100 mg/kg/day, P81) was 18.64, the “Mean weight (Mean 2)” value (NU-9 100 mg/kg/day, P88) was 18.91 and the “Mean weight (Mean 2)” value (NU-9 100 mg/kg/day, P95) was 19. The “Weight, Average” value (NU-9 20 mg/kg/day po, P60) was 18.4 g, the “Weight, Average” value (NU-9 20 mg/kg/day po, P67) was 19 g and the “Weight, Average” value (NU-9 20 mg/kg/day po, P74) was 18.8 g. For the same compound, the “Weight, Average” value (NU-9 20 mg/kg/day po, P81) was 18.2 g, the “Weight, Average” value (NU-9 20 mg/kg/day po, P88) was 18.8 g and the “Weight, Average” value (NU-9 20 mg/kg/day po, P95) was 18.8 g. The “Weight, Average” value (NU-9 20 mg/kg/day po, P102) was 19 g, the “Weight, Average” value (NU-9 20 mg/kg/day po, P109) was 20.2 g and the “Weight, Average” value (NU-9 20 mg/kg/day po, P116) was 20.6 g. The “Weight, Average” value (NU-9 100 mg/kg/day po, P60) was 17.8182 g, the “Weight, Average” value (NU-9 100 mg/kg/day po, P67) was 18.6 g and the “Weight, Average” value (NU-9 100 mg/kg/day po, P74) was 18.1 g. For the same compound, the “Weight, Average” value (NU-9 100 mg/kg/day po, P81) was 18.7 g, the “Weight, Average” value (NU-9 100 mg/kg/day po, P88) was 18.9 g and the “Weight, Average” value (NU-9 100 mg/kg/day po, P95) was 19 g. The “Weight, Average” value (NU-9 100 mg/kg/day po, P102) was 19.5 g, the “Weight, Average” value (NU-9 100 mg/kg/day po, P109) was 19.6 g and the “Weight, Average” value (NU-9 100 mg/kg/day po, P116) was 20.3 g.

Reference: publication PMC7898037, “Improving mitochondria and ER stability helps eliminate upper motor neuron degeneration that occurs due to mSOD1 toxicity and TDP‐43 pathology” (Clinical and Translational Medicine, 2021)
